Consider 5 compounds from publication PMC6222781, “Structural Optimization of Foldamer-Dendrimer Conjugates as Multivalent Agents against the Toxic Effects of Amyloid Beta Oligomers” (Molecules : A Journal of Synthetic Chemistry and Natural …, 2018).

SMILES strings stand for the structures.

The assay addresses T1, Aβ oligomers (Homo sapiens, UniProt P05067).
T1 construct: Ser^26 depsipeptide iso-Aβ (1–42) was used; made in house; host or cells: chemical peptide synthesis (no expression host)
Nature of the assay: Isothermal titration calorimetry (ITC) binding to Aβ oligomers. To be noted: PBS pH 7.4, 285 K; for Kd: Aβ 100 µM in cell, ligand 250 µM in syringe, two independent site model. Here is the method:
The binding affinities of 2b–2i to Aβ oligomers were tested in ITC experiments.
In this work, Ser^26 depsipeptide iso-Aβ (1–42) was used, which was synthesized and purified as described previously. The lyophilized iso-Aβ (1–42) was dissolved in MilliQ water to a concentration of 1 mg mL^−1, sonicated for 3 min and the pH was set to 7.0 to initiate an O to N acyl migration, whereby the native sequence can be readily formed. The sample was incubated at room temperature for 10 min. Then the pH was set to 11 and the sample was kept at room temperature for additional 2 h. After the incubation, the Aβ stock solution was aliquoted and stored at −20 °C until use. To obtain Aβ oligomers, the 1 mg mL^−1 aliquot was diluted to a final concentration of 50 μM with 26.67 mM PBS and the pH was set to 7.4 with 1 M HCl. The sample was incubated at 37 °C for 3 h.
Isothermal calorimetric titrations were performed with a Microcal VP-ITC microcalorimeter in pH 7.4 PBS buffer solution. In individual titrations, 10 µL portions of the ligand containing solution were repeatedly injected from the computer-controlled 300-µL microsyringe at intervals of 300 s into the Aβ oligomer solution prepared in the same buffer as the ligand. All measurements were carried out at 285 K. The Aβ concentration in the cell was 100 µM and the total ligand concentration was 250 µM in the syringe and the titration was stopped when the precipitation of the Aβ aggregates became excessive. Control experiments were performed by injecting the ligand into a cell containing buffer with no target, and the heats of dilution were subtracted from those measured in the presence of Aβ. The experimental data were fitted to the two independent site binding models by using a nonlinear least-squares procedure, with ΔHb, ΔHb’, Kd, Kd’ ([…]), n and n’ (number of binding sites for monomer), as adjustable parameters.

Setting [1] is: Table 2, ITC, first binding stage.
[2] abbreviates: Table 2, ITC, second binding stage.
[3] abbreviates: KD, first binding stage, Table 2.
Where [4] appears, read: KD, second binding stage, Table 2.

T1 sequence (P05067 672-713 limits assumed): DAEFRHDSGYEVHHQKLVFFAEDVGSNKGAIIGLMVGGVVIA

For `N=C(N)NCCC[C@@H](CC(=O)N[C@H]1CCCC[C@@H]1C(=O)N[C@H]1CCCC[C@@H]1C(=O)N[C@@H](CC(=O)O)CC(=O)N[C@H]1CCCC[C@@H]1C(=O)NCC(=O)NCC(=O)N[C@@H](CSSC[C@H](NC(=O)CNC(=O)CNC(=O)[C@H]1CCCC[C@@H]1NC(=O)C[C@H](CC(=O)O)NC(=O)[C@H]1CCCC[C@@H]1NC(=O)[C@H]1CCCC[C@@H]1NC(=O)C[C@H](CCCNC(=N)N)NC(=O)[C@H]1CCCC[C@@H]1NC(=O)CCC(=O)NCCOCCOCCNC(=O)[C@H]1CCCC[C@@H]1NC(=O)C[C@H](CC(=O)O)NC(=O)[C@H]1CCCC[C@@H]1NC(=O)[C@H]1CCCC[C@@H]1NC(=O)C[C@H](CCCNC(=N)N)NC(=O)[C@H]1CCCC[C@@H]1N)C(N)=O)C(N)=O)NC(=O)[C@H]1CCCC[C@@H]1NC(=O)CCC(=O)NCCOCCOCCNC(=O)[C@H]1CCCC[C@@H]1NC(=O)C[C@H](CC(=O)O)NC(=O)[C@H]1CCCC[C@@H]1NC(=O)[C@H]1CCCC[C@@H]1NC(=O)C[C@H](CCCNC(=N)N)NC(=O)[C@H]1CCCC[C@@H]1N` [Compound 9], under setting [1], the “ΔG, first binding stage” value is -9.83 kcal/M and the “ΔH, first binding stage” value came out at 6.01 kcal/M. Besides, under setting [2], the “ΔG, second binding stage” value was -8.48 kcal/M and the “ΔH, second binding stage” value amounted to 1.18 kcal/M.
For `N=C(N)NCCC[C@@H](CC(=O)N[C@H]1CCCC[C@@H]1C(=O)N[C@H]1CCCC[C@@H]1C(=O)N[C@@H](CC(=O)O)CC(=O)N[C@H]1CCCC[C@@H]1C(=O)NCC(=O)NCC(=O)N[C@@H](CSC1CC(=O)N(CCC(=O)NCCNC(=O)CCN(CCC(=O)NCCNC(=O)CCN2C(=O)CC(SC[C@H](NC(=O)CNC(=O)CNC(=O)[C@H]3CCCC[C@@H]3NC(=O)C[C@H](CC(=O)O)NC(=O)[C@H]3CCCC[C@@H]3NC(=O)[C@H]3CCCC[C@@H]3NC(=O)C[C@H](CCCNC(=N)N)NC(=O)[C@H]3CCCC[C@@H]3N)C(N)=O)C2=O)CCN(CCC(=O)NCCNC(=O)CCN2C(=O)CC(SC[C@H](NC(=O)CNC(=O)CNC(=O)[C@H]3CCCC[C@@H]3NC(=O)C[C@H](CC(=O)O)NC(=O)[C@H]3CCCC[C@@H]3NC(=O)[C@H]3CCCC[C@@H]3NC(=O)C[C@H](CCCNC(=N)N)NC(=O)[C@H]3CCCC[C@@H]3N)C(N)=O)C2=O)CCC(=O)NCCNC(=O)CCN2C(=O)CC(SC[C@H](NC(=O)CNC(=O)CNC(=O)[C@H]3CCCC[C@@H]3NC(=O)C[C@H](CC(=O)O)NC(=O)[C@H]3CCCC[C@@H]3NC(=O)[C@H]3CCCC[C@@H]3NC(=O)C[C@H](CCCNC(=N)N)NC(=O)[C@H]3CCCC[C@@H]3N)C(N)=O)C2=O)C1=O)C(N)=O)NC(=O)[C@H]1CCCC[C@@H]1N` (stereo partly drawn) [Compound 5], the Kd runs as follows: under setting [3], 6.9 ± 1.4 nM; under setting [4], 281 ± 38.7 nM.
For the compound `CC1(C)[C@H]2C[C@H](NC(=O)C[C@H](CCCNC(=N)N)NC(=O)[C@H]3CCCC[C@@H]3N)[C@@H](C(=O)N[C@H]3CCCC[C@@H]3C(=O)N[C@@H](CC(=O)O)CC(=O)N[C@H]3CCCC[C@@H]3C(=O)NCC(=O)NCC(=O)N[C@@H](CSC3CC(=O)N(CCC(=O)NCCCC[C@H](NC(=O)CCN4C(=O)CC(SC[C@H](NC(=O)CNC(=O)CNC(=O)[C@H]5CCCC[C@@H]5NC(=O)C[C@H](CC(=O)O)NC(=O)[C@H]5CCCC[C@@H]5NC(=O)[C@@H]5[C@@H](NC(=O)C[C@H](CCCNC(=N)N)NC(=O)[C@H]6CCCC[C@@H]6N)C[C@H]6C[C@@H]5C6(C)C)C(N)=O)C4=O)C(=O)NCCCC[C@H](NC(=O)[C@H](CCCCNC(=O)CCN4C(=O)CC(SC[C@H](NC(=O)CNC(=O)CNC(=O)[C@H]5CCCC[C@@H]5NC(=O)C[C@H](CC(=O)O)NC(=O)[C@H]5CCCC[C@@H]5NC(=O)[C@@H]5[C@@H](NC(=O)C[C@H](CCCNC(=N)N)NC(=O)[C@H]6CCCC[C@@H]6N)C[C@H]6C[C@@H]5C6(C)C)C(N)=O)C4=O)NC(=O)CCN4C(=O)CC(SC[C@H](NC(=O)CNC(=O)CNC(=O)[C@H]5CCCC[C@@H]5NC(=O)C[C@H](CC(=O)O)NC(=O)[C@H]5CCCC[C@@H]5NC(=O)[C@@H]5[C@@H](NC(=O)C[C@H](CCCNC(=N)N)NC(=O)[C@H]6CCCC[C@@H]6N)C[C@H]6C[C@@H]5C6(C)C)C(N)=O)C4=O)C(=O)N[C@@H](CCCCNC(=O)CCCC[C@@H]4SC[C@@H]5NC(=O)N[C@@H]54)C(N)=O)C3=O)C(N)=O)[C@@H]1C2` (stereo partly drawn) [Compound 2g], binding (KD ITC, first binding stage, Table 1) was characterised by a dissociation constant (Kd) of 34.1 ± 10 nM and the Kd (KD ITC, second binding stage, Table 1) came to 652 ± 158 nM.
`N=C(N)NCCC[C@@H](CC(=O)N[C@H]1CCCC[C@@H]1C(=O)N[C@H]1CCCC[C@@H]1C(=O)N[C@@H](CC(=O)O)CC(=O)N[C@H]1CCCC[C@@H]1C(=O)NCC(=O)NCC(=O)N[C@@H](CSC1CC(=O)N(CCC(=O)NCCCC[C@H](NC(=O)CCN2C(=O)CC(SC[C@H](NC(=O)CNC(=O)CNC(=O)[C@H]3CCCC[C@@H]3NC(=O)C[C@H](CC(=O)O)NC(=O)[C@H]3CCCC[C@@H]3NC(=O)[C@H]3CCCC[C@@H]3NC(=O)C[C@H](CCCNC(=N)N)NC(=O)[C@H]3CCCC[C@@H]3N)C(N)=O)C2=O)C(=O)NCCCC[C@H](NC(=O)[C@H](CCCCNC(=O)CCN2C(=O)CC(SC[C@H](NC(=O)CNC(=O)CNC(=O)[C@H]3CCCC[C@@H]3NC(=O)C[C@H](CC(=O)O)NC(=O)[C@H]3CCCC[C@@H]3NC(=O)[C@H]3CCCC[C@@H]3NC(=O)C[C@H](CCCNC(=N)N)NC(=O)[C@H]3CCCC[C@@H]3N)C(N)=O)C2=O)NC(=O)CCN2C(=O)CC(SC[C@H](NC(=O)CNC(=O)CNC(=O)[C@H]3CCCC[C@@H]3NC(=O)C[C@H](CC(=O)O)NC(=O)[C@H]3CCCC[C@@H]3NC(=O)[C@H]3CCCC[C@@H]3NC(=O)C[C@H](CCCNC(=N)N)NC(=O)[C@H]3CCCC[C@@H]3N)C(N)=O)C2=O)C(=O)NCC(N)=O)C1=O)C(N)=O)NC(=O)[C@H]1CCCC[C@@H]1N` (stereo partly drawn) [Compound 7]: the dissociation constant (Kd) was 16.2 ± 8.9 nM under setting [3] and 128 ± 56.7 nM under setting [4].
In the same order, the values of `N=C(N)NCCC[C@@H](CC(=O)N[C@H]1CCCC[C@@H]1C(=O)N[C@H]1CCCC[C@@H]1C(=O)N[C@@H](CC(=O)O)CC(=O)N[C@H]1CCCC[C@@H]1C(=O)NCC(=O)NCC(=O)N[C@@H](CSC1CC(=O)N(CCC(=O)NCCNC(=O)CCN(CCNC(=O)CCN(CCC(=O)NCCN(CCC(=O)NCCNC(=O)CCN2C(=O)CC(SC[C@H](NC(=O)CNC(=O)CNC(=O)[C@H]3CCCC[C@@H]3NC(=O)C[C@H](CC(=O)O)NC(=O)[C@H]3CCCC[C@@H]3NC(=O)[C@H]3CCCC[C@@H]3NC(=O)C[C@H](CCCNC(=N)N)NC(=O)[C@H]3CCCC[C@@H]3N)C(N)=O)C2=O)CCC(=O)NCCNC(=O)CCN2C(=O)CC(SC[C@H](NC(=O)CNC(=O)CNC(=O)[C@H]3CCCC[C@@H]3NC(=O)C[C@H](CC(=O)O)NC(=O)[C@H]3CCCC[C@@H]3NC(=O)[C@H]3CCCC[C@@H]3NC(=O)C[C@H](CCCNC(=N)N)NC(=O)[C@H]3CCCC[C@@H]3N)C(N)=O)C2=O)CCN(CCC(=O)NCCN(CCC(=O)NCCNC(=O)CCN2C(=O)CC(SC[C@H](NC(=O)CNC(=O)CNC(=O)[C@H]3CCCC[C@@H]3NC(=O)C[C@H](CC(=O)O)NC(=O)[C@H]3CCCC[C@@H]3NC(=O)[C@H]3CCCC[C@@H]3NC(=O)C[C@H](CCCNC(=N)N)NC(=O)[C@H]3CCCC[C@@H]3N)C(N)=O)C2=O)CCC(=O)NCCNC(=O)CCN2C(=O)CC(SC[C@H](NC(=O)CNC(=O)CNC(=O)[C@H]3CCCC[C@@H]3NC(=O)C[C@H](CC(=O)O)NC(=O)[C@H]3CCCC[C@@H]3NC(=O)[C@H]3CCCC[C@@H]3NC(=O)C[C@H](CCCNC(=N)N)NC(=O)[C@H]3CCCC[C@@H]3N)C(N)=O)C2=O)CCC(=O)NCCN(CCC(=O)NCCNC(=O)CCN2C(=O)CC(SC[C@H](NC(=O)CNC(=O)CNC(=O)[C@H]3CCCC[C@@H]3NC(=O)C[C@H](CC(=O)O)NC(=O)[C@H]3CCCC[C@@H]3NC(=O)[C@H]3CCCC[C@@H]3NC(=O)C[C@H](CCCNC(=N)N)NC(=O)[C@H]3CCCC[C@@H]3N)C(N)=O)C2=O)CCC(=O)NCCNC(=O)CCN2C(=O)CC(SC[C@H](NC(=O)CNC(=O)CNC(=O)[C@H]3CCCC[C@@H]3NC(=O)C[C@H](CC(=O)O)NC(=O)[C@H]3CCCC[C@@H]3NC(=O)[C@H]3CCCC[C@@H]3NC(=O)C[C@H](CCCNC(=N)N)NC(=O)[C@H]3CCCC[C@@H]3N)C(N)=O)C2=O)CCC(=O)NCCNC(=O)CCN2C(=O)CC(SC[C@H](NC(=O)CNC(=O)CNC(=O)[C@H]3CCCC[C@@H]3NC(=O)C[C@H](CC(=O)O)NC(=O)[C@H]3CCCC[C@@H]3NC(=O)[C@H]3CCCC[C@@H]3NC(=O)C[C@H](CCCNC(=N)N)NC(=O)[C@H]3CCCC[C@@H]3N)C(N)=O)C2=O)C1=O)C(N)=O)NC(=O)[C@H]1CCCC[C@@H]1N` (stereo partly drawn) [Compound 6] are 69 ± 12 nM and 193 ± 30.5 nM.
